Test results reported in US12653800B2, “Small molecule inhibitors of TLR2 signaling” (University of Maryland, Baltimore, priority 2015, dated 2026).
pIC50: −log10 of the molar value.

Legend:
Type in all cases: cell-based
TLR2/1 [1] = molecular target: T1, TLR2/1 (Homo sapiens, UniProt O60603); experiment: P3C-induced IL-8 mRNA (qRT-PCR) in HEK-TLR2 stable transfectants; parameters: expressed in transfected cells; conditions: for percent inhibition, TLR2/1 versus TLR2/6 stimulation: HEK-TLR2 cells, human TLR2 signaling
T1 sequence (O60603 21-784): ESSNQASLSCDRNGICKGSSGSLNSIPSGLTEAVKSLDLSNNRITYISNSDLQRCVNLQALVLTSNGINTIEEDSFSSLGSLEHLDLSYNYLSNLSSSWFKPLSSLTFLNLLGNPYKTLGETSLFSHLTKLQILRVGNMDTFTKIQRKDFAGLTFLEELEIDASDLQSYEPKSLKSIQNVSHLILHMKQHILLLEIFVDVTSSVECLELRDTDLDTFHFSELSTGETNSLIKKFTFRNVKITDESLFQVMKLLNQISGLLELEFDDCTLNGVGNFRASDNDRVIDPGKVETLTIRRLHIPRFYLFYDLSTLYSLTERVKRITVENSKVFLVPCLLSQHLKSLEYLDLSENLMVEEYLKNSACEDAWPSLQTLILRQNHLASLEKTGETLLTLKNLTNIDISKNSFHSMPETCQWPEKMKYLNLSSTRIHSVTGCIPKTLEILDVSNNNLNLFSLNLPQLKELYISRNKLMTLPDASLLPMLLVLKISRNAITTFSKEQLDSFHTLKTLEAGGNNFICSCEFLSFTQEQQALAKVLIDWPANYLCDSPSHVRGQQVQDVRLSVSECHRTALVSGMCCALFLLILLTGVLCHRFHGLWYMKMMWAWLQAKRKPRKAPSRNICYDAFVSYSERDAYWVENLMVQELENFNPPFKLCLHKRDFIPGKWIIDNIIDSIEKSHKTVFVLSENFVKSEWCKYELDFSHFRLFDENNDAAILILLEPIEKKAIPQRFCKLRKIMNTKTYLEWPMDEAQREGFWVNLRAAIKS

TLR4 = molecular target: T2, TLR4 (Mus musculus, UniProt Q9QUK6); experiment: Cytokine mRNA in murine peritoneal macrophages stimulated with TLR4 agonists (LPS, HKEC)
T2 sequence (Q9QUK6 26-835): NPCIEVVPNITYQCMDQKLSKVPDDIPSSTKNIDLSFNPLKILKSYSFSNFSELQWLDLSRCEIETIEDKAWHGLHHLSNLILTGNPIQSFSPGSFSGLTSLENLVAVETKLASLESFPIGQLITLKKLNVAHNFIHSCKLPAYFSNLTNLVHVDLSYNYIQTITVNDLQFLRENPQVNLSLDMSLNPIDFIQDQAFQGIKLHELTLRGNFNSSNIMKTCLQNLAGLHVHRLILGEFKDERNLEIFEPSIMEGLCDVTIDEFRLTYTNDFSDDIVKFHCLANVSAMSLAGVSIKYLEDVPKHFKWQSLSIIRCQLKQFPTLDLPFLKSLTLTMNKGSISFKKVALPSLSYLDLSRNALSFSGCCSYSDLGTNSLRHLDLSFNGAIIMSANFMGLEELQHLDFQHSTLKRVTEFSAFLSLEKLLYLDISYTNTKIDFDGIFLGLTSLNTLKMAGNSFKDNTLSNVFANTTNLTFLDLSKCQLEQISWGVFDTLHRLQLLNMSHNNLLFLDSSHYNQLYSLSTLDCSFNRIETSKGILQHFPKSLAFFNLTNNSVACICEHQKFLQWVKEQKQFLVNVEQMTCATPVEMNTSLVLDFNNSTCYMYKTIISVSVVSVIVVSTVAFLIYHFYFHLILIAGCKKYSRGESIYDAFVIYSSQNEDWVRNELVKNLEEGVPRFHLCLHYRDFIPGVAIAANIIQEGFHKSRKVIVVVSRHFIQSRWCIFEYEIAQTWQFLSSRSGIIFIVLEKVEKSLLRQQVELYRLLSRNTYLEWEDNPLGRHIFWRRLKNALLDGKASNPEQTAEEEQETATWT
T2 sequence (Q9JHF9 19-160 partner): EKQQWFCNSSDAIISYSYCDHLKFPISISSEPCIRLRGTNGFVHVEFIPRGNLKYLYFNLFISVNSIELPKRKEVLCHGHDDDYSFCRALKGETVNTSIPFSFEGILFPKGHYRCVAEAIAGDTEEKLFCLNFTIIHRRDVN

TLR2/1 [2] = molecular target: TLR2/1 (Mus musculus, UniProt Q9QUN7); experiment: Cytokine mRNA/protein in murine peritoneal macrophages stimulated with TLR2/1 agonists (P3C, LTA SA)
Sequence of TLR2/1 (Mus musculus, UniProt Q9QUN7) (Q9QUN7 25-784): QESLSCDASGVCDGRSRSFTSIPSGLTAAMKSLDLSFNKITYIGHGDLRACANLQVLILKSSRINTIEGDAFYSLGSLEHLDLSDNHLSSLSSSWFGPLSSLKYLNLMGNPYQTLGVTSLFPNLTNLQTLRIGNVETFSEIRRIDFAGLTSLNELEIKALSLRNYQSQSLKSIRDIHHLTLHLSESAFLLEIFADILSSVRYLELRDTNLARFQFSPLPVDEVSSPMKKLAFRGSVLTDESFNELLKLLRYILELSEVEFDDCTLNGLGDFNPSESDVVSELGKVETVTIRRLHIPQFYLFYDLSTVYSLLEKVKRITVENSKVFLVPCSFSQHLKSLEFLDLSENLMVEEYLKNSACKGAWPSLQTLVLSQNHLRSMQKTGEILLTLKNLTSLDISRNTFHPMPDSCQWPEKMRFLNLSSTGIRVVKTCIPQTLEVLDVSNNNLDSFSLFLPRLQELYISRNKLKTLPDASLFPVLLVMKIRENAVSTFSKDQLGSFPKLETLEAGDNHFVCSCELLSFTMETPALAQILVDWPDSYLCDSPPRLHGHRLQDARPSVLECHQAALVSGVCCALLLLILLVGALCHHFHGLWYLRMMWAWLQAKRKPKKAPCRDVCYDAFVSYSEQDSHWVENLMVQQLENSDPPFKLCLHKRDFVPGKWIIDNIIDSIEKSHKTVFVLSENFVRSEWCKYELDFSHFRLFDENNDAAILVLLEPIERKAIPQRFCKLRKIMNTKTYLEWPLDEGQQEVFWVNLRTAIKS

TLR2/6 [3] = molecular target: TLR2/6 (Homo sapiens, UniProt O60603); experiment: NF-κβ (ELAM)-luciferase reporter assay in transiently transfected HEK293T cells, P2C; parameters: expressed in transfected cells; host or cells: HEK293T, transient transfection (Superfect); conditions: P2C 50 ng/mL 5 hrs; for pIC50: NF-κβ reporter assay in HEK293T cells, 1 μM-250 μM, read-out: IC50 for human TLR2/6 signaling
Sequence of TLR2/6 (Homo sapiens, UniProt O60603) (O60603 21-784): as the sequence (O60603 21-784) above
Protocol: (§1) FIG. 8. C29 inhibits hTLR2/1- and hTLR2/6-induced NF-κβ activation. (A, B) HEK293T cells were transiently transfected with reporter constructs for ELAM-luciferase, Renilla-luciferase, and either pcDNA3.1 or pcDNA3-YFP-hTLR2. Cells were pretreated for 1 hr with media, vehicle (65 μM NaOH), or C29 (50 μM) and treated with P3C or P2C (50 ng/mL) for 5 hrs in the presence of media, vehicle, or C29. Lysates were prepared and the dual-luciferase assay performed. Results are representative of 3 independent experiments each carried out in duplicate (**, p≤0.01; ***, p≤0.001).
(§2) FIG. 9. C29 is species-specific and blocks human TLR2/6 signaling, but not murine TLR2/6 signaling. (A-D) HEK293T cells were transiently transfected with reporter constructs for ELAM-luciferase, Renilla-luciferase, and pcDNA3.1 in combination with/without pcDNA3-YFP-hTLR2, pFLAG-CMV1-hTLR1, pcDNA3-CFP-hTLR6, pcDNA3.1-mTLR2-CFP, pcDNA3.1-mTLR1-YFP, or pcDNA3.1-mTLR6-CFP. Cells were pretreated for 1 hr with media, vehicle (65 μM NaOH), or C29 (50 μM) and then treated with P3C or P2C (50 ng/mL) for 5 hrs in the presence of media, vehicle, or C29. Lysates were prepared and the dual-luciferase assay performed. Panels A and B represent the mean±SEM from 3 independent experiments and panels C and D represent the mean±SEM from 2 independent experiments each carried out in duplicate (*, p≤0.05; **, p≤0.01).
(§3) FIG. 12. C29 L blocks human TLR2/1 and TLR2/6 signaling comparably to C29 in HEK293T cells. (A-D) HEK293T cells were transiently transfected with reporter constructs for ELAM-luciferase, Renilla-luciferase, and pcDNA3-YFP-hTLR2. Cells were pretreated for 1 hr with C29 or C29L (1 μM-250 μM) and treated with P3C or P2C (50 ng/mL) for 5 hrs in the presence of C29 or C29L. Lysates were prepared and dual-luciferase assay performed. Data is representative of 2 independent experiments each carried out in duplicate.
HEK293T cells were cultured and plated overnight in 12-well tissue culture plates (2×10^5 cells/well). Transfection mixtures consisted of pcDNA3-YFP-hTLR2 or pcDNA3.1 control vector (1 μg/well each), pELAM (NF-κB)-luciferase (0.2 μg/well), and pRL-TK-Renilla luciferase (0.05 μg/well). Transfection was carried out using Superfect transfection reagent, cells were recovered for 48 h, and treated for 5 h with medium or stimuli in the presence/absence of C29. Cells were lysed in a passive lysis buffer (Promega, Madison, WI) and firefly luciferase and Renilla luciferase activities were measured using the dual luciferase reporter assay system (Promega, Madison, WI). […]

TLR2/1 [4] = molecular target: T1, TLR2/1; experiment: NF-κβ (ELAM)-luciferase reporter assay in transiently transfected HEK293T cells, P3C; parameters: expressed in transfected cells; host or cells: HEK293T, transient transfection (Superfect); conditions: P3C 50 ng/mL 5 hrs; for pIC50: NF-κβ reporter assay in HEK293T cells, 1 μM-250 μM, read-out: IC50 for human TLR2/1 signaling
Protocol: as §1, §2
as §3, with “Lysates were prepared and dual-luciferase assay performed. Data is representative of 2 independent experiments each carried out in duplicate.” left out
HEK293T cells were cultured and plated overnight in 12-well tissue culture plates (2×10^5 cells/well). […] Cells were lysed in a passive lysis buffer (Promega, Madison, WI) and firefly luciferase and Renilla luciferase activities were measured using the dual luciferase reporter assay system (Promega, Madison, WI). […]

TLR2/6 [5] = molecular target: TLR2/6 (Mus musculus, UniProt Q9QUN7); experiment: Cytokine mRNA in murine peritoneal macrophages stimulated with TLR2/6 agonists (P2C, zymosan)
Sequence of TLR2/6 (Mus musculus, UniProt Q9QUN7) (Q9QUN7 25-784): as the sequence (Q9QUN7 25-784) above

[6] = HEK293T expressing human TLR2, C29 50 μM

SMILES	percent inhibition, TLR2/1 versus TLR2/6 stimulation (TLR2/1 [1])	TLR4 signaling pathway (TNF-α mRNA) (TLR4; 25 μM or 50 μM, LPS 100 ng/mL 1 hr)	TLR2/1-induced TNF-α gene expression (TLR2/1 [2]; murine macrophages, 25 μM or 50 μM, P3C 50 ng/mL 1 hr)	pIC50 (TLR2/6 [3])	pIC50 (TLR2/1 [4])	TLR2/6 signaling pathway (TNF-α mRNA) (TLR2/6 [5]; 25 μM or 50 μM, P2C 100 ng/mL 1 hr)	P3C-induced IL-8 mRNA (TLR2/1 [1]; C29 10 μM or 50 μM, P3C 200 ng/mL 1 hr, HEK-TLR2 stable transfectants)	heat-killed Escherichia coli (HKEC)-induced IL-1β mRNA (TLR4; C29 50 μM, MOI=0.1, 4 hrs, signals predominately through TLR4)	P3C-induced IL-1β mRNA (TLR2/1 [2]; murine macrophages, C29 50 μM, P3C 50 ng/mL 3 hrs)	LTA SA-induced IL-1β mRNA (TLR2/1 [2]; murine macrophages, C29 50 μM, S. aureus LTA 1 μg/mL 3 hrs)	P3C-induced TNF-α mRNA (TLR2/1 [2]; murine peritoneal macrophages, C29 25 μM or 50 μM, P3C 50 ng/mL 1 hr)	P3C-induced IL-12 p40 protein (ELISA) (TLR2/1 [2]; murine peritoneal macrophages, C29 50 μM, P3C 50 ng/mL 4 or 6 hrs)	P2C-induced NF-κβ-luciferase activity (TLR2/6 [3]; [6])	hTLR2/6-induced NF-κβ-luciferase activity (TLR2/6 [3]; HEK293T transfected with human TLR2 and TLR6, C29 50 μM)	P3C-induced NF-κβ-luciferase activity (TLR2/1 [4]; [6])	zymosan-induced IL-1β mRNA (TLR2/6 [5]; C29 50 μM, zymosan 10 μg/mL 3 hrs)
COc1cccc(C=O)c1O [Compound C29L, ortho-vanillin]	consistently greater when TLR2/1 is stimulated	no effect	dose-dependently inhibited	4.43	4.62	no effect	–	–	–	–	–	–	–	–	–	–
COc1cccc(/C=N/c2cccc(C(=O)O)c2C)c1O [Compound C29]	consistently greater when TLR2/1 is stimulated	–	–	4.42	4.71	–	blocked P3C- and P2C-induced IL-8 mRNA dose-dependently	not blocked	specifically blocked	specifically blocked	significantly reduced	significantly reduced	inhibited	significantly inhibited	inhibited	did not inhibit
